Measured values published in the NIST ThermoML archive (doi:10.1016/j.fluid.2014.04.019).
± gives the expanded uncertainty stated by the source.

Assay: xn = mol fraction of the nth substance listed
Conditions: 101 kPa, Liquid

OCCOCCO [diethylene glycol] + CN(C)C=O
Conditions | kinematic viscosity, 308.15 K [m2/s] | kinematic viscosity, 313.15 K [m2/s] | kinematic viscosity, 318.15 K [m2/s] | mass density, 308.15 K [kg/m3] | mass density, 313.15 K [kg/m3] | mass density, 318.15 K [kg/m3]
x2 = 0 | – | 1.45e-05 ± 6e-07 | 1.12e-05 ± 5e-07 | – | 1103 ± 3.2 | 1099.3 ± 3.3
x2 = 0.0714 | – | 1.07e-05 ± 5e-07 | 8.43e-06 ± 4e-07 | – | 1093.4 ± 3.2 | 1089.5 ± 3.3
x2 = 0.1393 | – | 8.49e-06 ± 4.1e-07 | 6.68e-06 ± 3.4e-07 | – | 1083.9 ± 3.1 | 1079.8 ± 3.2
x2 = 0.2041 | – | 7.39e-06 ± 3.6e-07 | 5.77e-06 ± 3e-07 | – | 1074.6 ± 3.1 | 1070.3 ± 3.2
x2 = 0.2683 | – | 6.18e-06 ± 3.2e-07 | 4.88e-06 ± 2.7e-07 | – | 1065.1 ± 3.1 | 1060.7 ± 3.2
x2 = 0.3266 | – | 5.2e-06 ± 2.8e-07 | 4.16e-06 ± 2.3e-07 | – | 1056.2 ± 3.1 | 1051.7 ± 3.2
x2 = 0.3834 | – | 4.4e-06 ± 2.4e-07 | 3.54e-06 ± 2e-07 | – | 1047.3 ± 3 | 1042.7 ± 3.1
x2 = 0.4384 | – | 3.74e-06 ± 2.1e-07 | 3.06e-06 ± 1.7e-07 | – | 1038.5 ± 3 | 1033.9 ± 3.1
x2 = 0.4917 | – | 3.2e-06 ± 1.8e-07 | 2.64e-06 ± 1.5e-07 | – | 1029.7 ± 3 | 1024.9 ± 3.1
x2 = 0.5429 | – | 2.75e-06 ± 1.5e-07 | 2.29e-06 ± 1.3e-07 | – | 1021 ± 3 | 1016.2 ± 3.1
x2 = 0.5865 | 2.53e-06 ± 1.4e-07 | 2.41e-06 ± 1.4e-07 | 2.03e-06 ± 1.2e-07 | 1017.3 ± 2.8 | 1013.4 ± 2.9 | 1008.6 ± 3
x2 = 0.6394 | 2.16e-06 ± 1.2e-07 | 2.07e-06 ± 1.2e-07 | 1.76e-06 ± 1e-07 | 1007.9 ± 2.8 | 1004 ± 2.9 | 999.1 ± 3
x2 = 0.6819 | 1.89e-06 ± 1.1e-07 | 1.82e-06 ± 1.1e-07 | 1.56e-06 ± 9e-08 | 1000.1 ± 2.8 | 996.2 ± 2.9 | 991.2 ± 3
x2 = 0.7294 | 1.64e-06 ± 1e-07 | 1.59e-06 ± 9e-08 | 1.37e-06 ± 8e-08 | 991.1 ± 2.8 | 987.1 ± 2.9 | 982.1 ± 3
x2 = 0.7721 | 1.44e-06 ± 9e-08 | 1.39e-06 ± 8e-08 | 1.22e-06 ± 7e-08 | 982.8 ± 2.7 | 978.6 ± 2.8 | 973.6 ± 2.9
x2 = 0.813 | 1.28e-06 ± 8e-08 | 1.23e-06 ± 7e-08 | 1.09e-06 ± 7e-08 | 974.5 ± 2.7 | 970.3 ± 2.8 | 965.2 ± 2.9
x2 = 0.8531 | 1.14e-06 ± 7e-08 | 1.1e-06 ± 7e-08 | 9.94e-07 ± 6.1e-08 | 966.3 ± 2.7 | 962.1 ± 2.8 | 956.9 ± 2.9
x2 = 0.891 | 1.03e-06 ± 6e-08 | 9.92e-07 ± 6.1e-08 | 8.99e-07 ± 5.6e-08 | 958.3 ± 2.7 | 954.1 ± 2.8 | 948.9 ± 2.9
x2 = 0.9288 | 9.23e-07 ± 5.8e-08 | 8.88e-07 ± 5.6e-08 | 8.16e-07 ± 5.2e-08 | 950 ± 2.6 | 945.8 ± 2.7 | 940.7 ± 2.8
x2 = 0.9648 | 8.37e-07 ± 5.3e-08 | 8.06e-07 ± 5.1e-08 | 7.44e-07 ± 4.8e-08 | 942.3 ± 2.6 | 937.9 ± 2.7 | 932.6 ± 2.8
